This is an account of results in patent publication US9914723B2, “Small molecule inhibitors of Mcl-1 and uses thereof” (THE REGENTS OF THE UNIVERSITY OF MICHIGAN, priority 2012, dated 2018).

For experiment [1], the target named is T1, Mcl-1 (Homo sapiens, UniProt Q07820). Particulars: cited from earlier work.
The target in experiment [2] is T1, Mcl-1. The experiment in a line: fluorescence polarizing binding assay, binding to Mcl-1. Particulars: for IC50: fluorescence polarizing binding assay; for fold decrease of binding affinity to Mcl-1: in comparison with UMI-1033; for binding / inhibition of Mcl-1 compared with UMI-1033, in words: 4-methyl-1-piperazinyl group of UMI-1033 replaced. Here is the method: FIGS. 1, 2, 3, and 4 show various compounds for Formula I having various R1, R2, R3, R4, R5, R6, R7 and R8 groups, and related structure activity relationship (SAR) for each respective compound (IC50 values were determined with fluorescence polarizing binding assay).

For a further experiment, the system named is MV4-11. As to the kind of experiment: Cellular activity against leukemia human tumor cell lines: MV4-11. Particulars: AML-derived cell line. The format is cell-based. Here is the method: (§1) Acute myeloid leukemia (AML) frequently relapses after initial treatment. Drug resistance in AML has been attributed to high levels of the anti-apoptotic Bcl-2 family proteins. Indeed, Mcl-1 is essential for development and survival of acute myelogenous leukemia cells. Therefore the cellular activity of Mcl-1 inhibitors against AML human cancer cell lines was tested. Blockade of Mcl-1 by these inhibitors (see Table 3) killed AML-derived cell lines, HL-60 and MV4-11, but had less impact on the human CML-derived (K562) cell line.

For a further experiment, the target named is T2, A1 (Homo sapiens, UniProt Q16548).
T2 sequence (Q16548 1-175): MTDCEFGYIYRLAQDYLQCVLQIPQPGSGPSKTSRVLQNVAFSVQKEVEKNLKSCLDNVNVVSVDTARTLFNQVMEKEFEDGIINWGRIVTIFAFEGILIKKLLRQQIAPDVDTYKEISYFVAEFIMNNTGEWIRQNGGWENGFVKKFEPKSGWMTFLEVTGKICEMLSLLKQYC
As to the kind of experiment: Binding affinity against Bcl-2 family anti-apoptotic proteins: A1.

A further experiment deals with Bcl-xL (Homo sapiens, UniProt Q07817). As to the kind of experiment: Binding affinity against Bcl-2 family anti-apoptotic proteins: Bcl-xL.
Bcl-xL, sequence (Q07817 whole entry, species assumed): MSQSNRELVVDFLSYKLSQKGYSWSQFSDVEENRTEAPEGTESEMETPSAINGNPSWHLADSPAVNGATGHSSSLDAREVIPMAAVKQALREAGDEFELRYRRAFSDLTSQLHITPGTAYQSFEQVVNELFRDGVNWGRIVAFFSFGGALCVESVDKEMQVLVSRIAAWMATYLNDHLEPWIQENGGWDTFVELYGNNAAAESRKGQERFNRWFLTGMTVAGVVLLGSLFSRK
For the next experiment, the target named is Bcl-2 (Homo sapiens, UniProt P10415). As to the kind of experiment: Binding affinity against Bcl-2 family anti-apoptotic proteins: Bcl-2.
Bcl-2, sequence (P10415 whole entry, species assumed): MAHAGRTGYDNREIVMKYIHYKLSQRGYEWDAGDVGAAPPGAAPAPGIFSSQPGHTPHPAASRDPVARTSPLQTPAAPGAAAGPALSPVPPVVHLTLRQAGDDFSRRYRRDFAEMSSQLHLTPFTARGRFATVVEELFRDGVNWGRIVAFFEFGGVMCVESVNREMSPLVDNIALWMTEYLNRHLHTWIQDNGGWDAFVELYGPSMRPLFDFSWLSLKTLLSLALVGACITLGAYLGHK
A further experiment relates to HL-60. The experiment in a line: Cellular activity against leukemia human tumor cell lines: HL-60. The format is cell-based. Conditions: AML-derived cell line. As to the method:
as §1

Experiment [3] deals with T3, cellular, endogenous Mcl-1 protein (Homo sapiens, UniProt Q07820).
T3 construct: endogenous in cells; host or cells: 2LMP cancer cell line (lysate)
T3 sequence (Q07820 whole entry): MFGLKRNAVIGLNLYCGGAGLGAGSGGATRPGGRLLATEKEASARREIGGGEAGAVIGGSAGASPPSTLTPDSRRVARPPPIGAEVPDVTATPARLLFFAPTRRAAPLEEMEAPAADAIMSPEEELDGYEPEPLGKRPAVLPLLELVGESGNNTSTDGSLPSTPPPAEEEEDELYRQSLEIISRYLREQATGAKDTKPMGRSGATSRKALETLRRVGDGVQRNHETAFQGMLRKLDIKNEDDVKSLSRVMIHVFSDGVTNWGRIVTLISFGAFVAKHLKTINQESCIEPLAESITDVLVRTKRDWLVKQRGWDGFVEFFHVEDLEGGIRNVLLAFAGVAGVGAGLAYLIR
As to the kind of experiment: Pull-down assay with biotin-labeled Noxa BH3 peptide (BL-Noxa) in 2LMP cell lysate. Type of experiment: binding.

The target of the next experiment is T4, Bcl-w (Homo sapiens, UniProt Q92843).
T4 sequence (Q92843 1-193): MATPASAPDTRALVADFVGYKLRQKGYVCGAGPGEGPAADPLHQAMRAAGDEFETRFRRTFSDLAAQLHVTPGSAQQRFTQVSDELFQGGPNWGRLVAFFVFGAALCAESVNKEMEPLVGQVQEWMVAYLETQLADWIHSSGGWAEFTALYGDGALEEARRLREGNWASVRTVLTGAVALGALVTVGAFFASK
The experiment in a line: Binding affinity against Bcl-2 family anti-apoptotic proteins: Bcl-w.

The target in experiment [4] is T1, Mcl-1. The experiment in a line: Binding affinity against Bcl-2 family anti-apoptotic proteins: Mcl-1.
The test system of the next experiment is HL-60 cell line. The experiment in a line: Induction of apoptosis in HL-60, flow cytometry with Annexin V and propidium iodide double staining; caspase-3 activation. The format is cell-based, human. From the text: To gain insights into the underlying mechanism of action for the cell growth inhibition of this class Mcl-1 inhibitors, the HL-60 cell line was selected and investigated if apoptosis contributes to the antiproliferative effect. Induction of apoptosis was monitored by flow cytometry using Annexin V and propidium iodide double staining.

The subject of another experiment is K562. As to the kind of experiment: Cellular activity against leukemia human tumor cell lines: K562. Particulars: human CML-derived cell line. The format is cell-based. Here is the method:
as §1

A further experiment concerns MEF WT cells. The experiment in a line: Cell death in wild-type MEF cells. Type of experiment: cell-based, mouse. As to the method:
(§2) It is known that apoptotic effectors Bak and Bax can be suppressed by multidomain anti-apoptotic proteins such as Mcl-1. To interrogate the mechanism of action, the activity of several novel Mcl-1 inhibitors were evaluated in mouse embryonic fibroblast (MEF) cells that included wild-type (WT) as well as cells deficient in Bax/Bak (DKO).

A further experiment deals with MEF DKO cells. The experiment in a line: Cell death in Bax/Bak deficient (DKO) MEF cells. Type of experiment: cell-based, mouse. Here is the method: as §2

T1 sequence (Q07820 whole entry, species assumed): as the sequence (Q07820 whole entry) above

In the case of `CN(C)CC[C@H](CSc1ccccc1)Nc1ccc(S(=O)(=O)NC(=O)c2ccc(N3CCN(Cc4ccccc4-c4ccc(Cl)cc4)CC3)cc2)cc1[N+](=O)[O-]` [ABT-737], the “binding to Mcl-1” value at Mcl-1 [1] is “fails to bind”.
Turning to `CCOC(=O)c1c(C)oc2c1c(C(c1ccc(F)cc1)N1CCN(C)CC1)c(O)c1ccccc12` (stereo not drawn) [UMI-118], on Mcl-1 [2], the IC50 was determined as 0.19 µM and the “fold decrease of binding affinity to Mcl-1” value amounted to 3 fold.
The compound `CCOC(=O)c1c(C)oc2c1c(C(c1cccc(F)c1)N1CCN(C)CC1)c(O)c1ccccc12` (stereo not drawn) [UMI-1003] returned an IC50 on Mcl-1 [2] of 0.2 µM.
Turning to `CCOC(=O)c1c(C)oc2c1c(C(c1ccncc1)N1CCOCC1)c(O)c1ccccc12` (stereo not drawn) [UMI-1007], the EC50 is 12.8 µM in the experiment with MV4-11 and 16 µM in the experiment on HL-60. In addition, the inhibition constant (Ki) is over 25 µM at A1; over 30 µM at Bcl-xL; over 30 µM on Bcl-2; over 30 µM at Bcl-w; 0.02 µM on Mcl-1 [4]. Moreover, the “disruption of the interactions between BL-Noxa and cellular Mcl-1” value in experiment [3] was “effectively disrupted the interactions between BL-Noxa and cellular Mcl-1”.
With `CCOC(=O)c1c(C)oc2c1c(C(c1ccncc1)N1CCN(CC)CC1)c(O)c1ccccc12` (stereo not drawn) [UMI-1008], on Mcl-1 [2], the “binding / inhibition of Mcl-1 compared with UMI-1033, in words” value was “kept same”.
Turning to `CCOC(=O)c1c(C)oc2c1c(C(c1ccncc1)N1CCN(C(C)C)CC1)c(O)c1ccccc12` (stereo not drawn) [UMI-1009], the EC50 in the experiment on MV4-11 was 7.15 µM; with HL-60, 3.98 µM; in the experiment on K562 it was over 30 µM. For the same compound, the inhibition constant (Ki) on A1 is over 25 µM; at Bcl-xL, over 30 µM; at Bcl-2, over 30 µM; at Bcl-w, over 30 µM; on Mcl-1 [4], 0.015 µM. Also, the “binding / inhibition of Mcl-1 compared with UMI-1033, in words” value on Mcl-1 [2] is recorded as “kept same”. Besides, the caspase-3 activation result with HL-60 cell line (HL-60) is “activation of caspase-3”. Also, the induction of apoptosis is 37% with HL-60 cell line (HL-60, 5 μM) and 57% in the experiment on HL-60 cell line (HL-60, 10 μM).
Take `CCOC(=O)c1c(C)oc2c1c(C(c1ccncc1)N1CCc3ccccc3C1)c(O)c1ccccc12` (stereo not drawn) [UMI-1011]: at Mcl-1 [2], the half-inhibitory concentration (IC50) was 0.19 µM and the “fold decrease of binding affinity to Mcl-1” value came out at 3 fold.
`CCOC(=O)c1c(C)oc2c1c(C(c1ccnc(Cl)c1)N1CCOCC1)c(O)c1ccccc12` (stereo not drawn) [UMI-1026]: the inhibition constant Ki on A1 was over 25 µM; at Bcl-xL, over 30 µM; at Bcl-2 it was over 30 µM; at Bcl-w it was over 30 µM; on Mcl-1 [4], 0.03 µM.
Regarding `CCOC(=O)c1c(C)oc2c1c(C(c1ccncc1)N1CCN(C)CC1)c(O)c1ccccc12` (stereo not drawn) [UMI-1033], the concentration giving a half-maximal response (EC50) is 7.05 µM with MV4-11, 11.3 µM in the experiment on HL-60 and over 30 µM in the experiment with K562. The inhibition constant Ki at A1 was over 25 µM; at Bcl-xL, over 30 µM; at Bcl-2 it was 16.7 µM; at Bcl-w, over 30 µM; at Mcl-1 [4], 0.02 µM.
Regarding `COC(=O)c1c(C)oc2c1c(C(c1ccncc1)N1CCN(C)CC1)c(O)c1ccccc12` (stereo not drawn) [UMI-1035], the EC50 in the experiment on MV4-11 (Homo sapiens, MV4-11) worked out at 6.16 µM; with HL-60 (Homo sapiens, HL-60), 12.3 µM; in the experiment on K562 (K562), 24.6 µM. Besides, the inhibitory constant (Ki) was over 25 µM at A1; over 30 µM at Bcl-xL; 13.8 µM at Bcl-2; 28 µM on Bcl-w; 0.015 µM on Mcl-1 [4]. In addition, in the experiment on MEF WT cells, the “cell death in MEF WT” value is “induced cell death”. Also, the “cell death in MEF DKO” value in the experiment with MEF DKO cells was “not in MEF DKO cells”.
Consider `COC(=O)c1c(C)oc2c1c(C(c1ccncc1)N1CCOCC1)c(O)c1ccccc12` (stereo not drawn) [UMI-1036], for which the EC50 in the experiment with MV4-11 is 8.22 µM; in the experiment with HL-60 it was 16.2 µM; in the experiment on K562 it was over 30 µM. For the same compound, the “cell death in MEF WT” value in the experiment on MEF WT cells is given as “induced cell death”. The “cell death in MEF DKO” value in the experiment on MEF DKO cells is reported as “not in MEF DKO cells”.
Consider `CCOC(=O)CN1CCN(C(c2ccncc2)c2c(O)c3ccccc3c3oc(C)c(C(=O)OCC)c23)CC1` (stereo not drawn) [UMI-1042], for which the concentration giving a half-maximal response (EC50) in the experiment on MV4-11 is 10.1 µM; in the experiment on HL-60, 14.7 µM; in the experiment on K562 it was over 30 µM. The “cell death in MEF WT” value in the experiment with MEF WT cells was “induced cell death”. Also, the “cell death in MEF DKO” value with MEF DKO cells was “not in MEF DKO cells”.
